The values that follow come from ChEMBL document CHEMBL3232987, “Investigation of Ugi-4CC derived 1H-tetrazol-5-yl-(aryl) methyl piperazinyl-6-fluoro-4-oxo-1,4-dihydroquinoline-3-carboxylic acid: synthesis, biology and 3D-QSAR analysis” (Eur J Med Chem, 2014).

The subject of data set [1] is Staphylococcus aureus. Put plainly: Antibacterial activity against Staphylococcus aureus ATCC 25923 by NCCLS two-fold dilution method. It is filed as functional. Particulars: for MIC: Staphylococcus aureus, ATCC 25923.
The test system of data set [2] is Staphylococcus aureus. In words: Antibacterial activity against methicillin-resistant Staphylococcus aureus ATCC 700699 by NCCLS two-fold dilution method. It is filed as functional.
In data set [3] the test system is Staphylococcus aureus. In words: Antibacterial activity against Staphylococcus aureus ATCC 29213 by NCCLS two-fold dilution method. Format: functional.
The test system of data set [4] is Staphylococcus aureus. In words: Antibacterial activity against gentamicin-resistant Staphylococcus aureus ATCC 33592 by NCCLS two-fold dilution method. Format: functional.
For data set [5], the system named is Staphylococcus aureus. Put plainly: Antibacterial activity against Staphylococcus aureus ATCC 25923 after 24 hrs by spectrophotometric analysis. The note with it: Staphylococcus aureus, ATCC 25923, 24 h; for IC50: read-out: IC50. Format: functional, organism-based.
In data set [6] the test system is Staphylococcus aureus. In words: Antibacterial activity against methicillin-resistant Staphylococcus aureus ATCC 700699 after 24 hrs by spectrophotometric analysis. It is filed as functional, organism-based. The note with it: Staphylococcus aureus, ATCC 700699, 24 h; for IC50: read-out: IC50.
Data set [7] relates to Staphylococcus aureus. Put plainly: Antibacterial activity against Staphylococcus aureus ATCC 29213 after 24 hrs by spectrophotometric analysis. Format: functional, organism-based. Particulars: Staphylococcus aureus, ATCC 29213, 24 h; for IC50: read-out: IC50.
The subject of data set [8] is Staphylococcus aureus. In words: Antibacterial activity against gentamicin-resistant Staphylococcus aureus ATCC 33592 after 24 hrs by spectrophotometric analysis. It is filed as functional, organism-based. Particulars: Staphylococcus aureus, ATCC 33592, 24 h; for IC50: read-out: IC50.
The test system of data set [9] is L929. Put plainly: Cytotoxicity against mouse L929 cells assessed as cell viability up to MIC 0.39 ug/ml after 24 hrs by MTT assay. It is filed as cell-based. Particulars: l929, 24 h.
Data set [10] relates to Escherichia coli. In words: Antibacterial activity against Escherichia coli by NCCLS two-fold dilution method. Format: functional.
Data set [11] relates to Klebsiella pneumoniae. Put plainly: Antibacterial activity against Klebsiella pneumoniae by NCCLS two-fold dilution method. Format: functional.
Data set [12] deals with Escherichia coli. In words: Antibacterial activity against Escherichia coli after 24 hrs by spectrophotometric analysis. Format: functional, organism-based. Particulars: Escherichia coli, 24 h.
Data set [13] has as its system Klebsiella pneumoniae. In words: Antibacterial activity against Klebsiella pneumoniae after 24 hrs by spectrophotometric analysis. Format: functional, organism-based. Particulars: Klebsiella pneumoniae, 24 h.
Data set [14] has as its system L929. Put plainly: Cytotoxicity against mouse L929 cells assessed as cell morphological changes at 12.5 to 50 ug/ml after 24 hrs by giemsa staining based phase contrast microscopy. Particulars: l929, 24 h.

Values after ≈ are worked out from the molar mass of the structure shown. Bounds are passed on as bounds.

The MIC is the least concentration at which growth counts as inhibited. Low readings indicate greater potency, high ones weaker potency. A word on the IC50: it is the concentration that inhibits the measured activity by half. Consider `CCn1cc(C(=O)O)c(=O)c2cc(F)c(N3CCN(C(c4ccc(F)cc4)c4nnnn4C(C)(C)C)CC3)cc21` (stereo unspecified), for which the “-logMIC” value in data set [1] is reported as 5.548. Also, the minimal inhibitory concentration (MIC) in data set [1] is 0.78 µg/mL (≈ 1.41 µM); in data set [2] it was 12.5 µg/mL (≈ 22.7 µM); in data set [3] it was 0.78 µg/mL (≈ 1.41 µM); in data set [4], 0.78 µg/mL (≈ 1.41 µM); in [5], 0.9 µg/mL (≈ 1.63 µM); in data set [6] it was 12.5 µg/mL (≈ 22.7 µM). Also, the minimal inhibitory concentration (MIC) in data set [7] came out at 0.7 µg/mL (≈ 1.27 µM); in [8], 0.5 µg/mL (≈ 0.906 µM). For the same compound, the IC50 in data set [5] was found to be 0.3 µg/mL (≈ 0.544 µM); in [6] it was 10 µg/mL (≈ 18.1 µM); in [7], 0.2 µg/mL (≈ 0.363 µM); in [8] it was 0.2 µg/mL (≈ 0.363 µM). Besides, in [9], the Activity entry is “Non-toxic”.

As for `CCn1cc(C(=O)O)c(=O)c2cc(F)c(N3CCN(C(c4cccc5ccccc45)c4nnnn4C(C)(C)C)CC3)cc21` (stereo unspecified), in data set [1], the “-logMIC” value turned out to be 5.573. For the same compound, the MIC in [1] was determined as 1.56 µg/mL (≈ 2.67 µM); in data set [2] it was 6.25 µg/mL (≈ 10.7 µM); in data set [3], 3.12 µg/mL (≈ 5.35 µM); in [4], 0.78 µg/mL (≈ 1.34 µM); in data set [5] it was 0.8 µg/mL (≈ 1.37 µM); in [6] it was 4.9 µg/mL (≈ 8.4 µM). Besides, the MIC in [7] came out at 2.4 µg/mL (≈ 4.11 µM); in data set [8] it was 0.7 µg/mL (≈ 1.2 µM). Further, the IC50 is 0.7 µg/mL (≈ 1.2 µM) in data set [5], 3.5 µg/mL (≈ 6 µM) in data set [6], 0.2 µg/mL (≈ 0.343 µM) in data set [7] and 0.2 µg/mL (≈ 0.343 µM) in data set [8]. In data set [9], the Activity result is listed as “Non-toxic”.

On to `CCn1cc(C(=O)O)c(=O)c2cc(F)c(N3CCN(C(c4ccccc4)c4nnnn4C(C)(C)C)CC3)cc21` (stereo unspecified), for which the “-logMIC” value in [1] is listed as 6.136. In addition, the MIC in data set [1] worked out at 0.39 µg/mL (≈ 0.731 µM); in [2] it was 25 µg/mL (≈ 46.9 µM); in data set [3], 0.78 µg/mL (≈ 1.46 µM); in data set [4] it was 0.39 µg/mL (≈ 0.731 µM); in data set [5], 0.38 µg/mL (≈ 0.712 µM); in [6], 8.3 µg/mL (≈ 15.6 µM). For the same compound, the figures for the MIC in [7] and in data set [8] were 0.5 µg/mL (≈ 0.937 µM) and 0.38 µg/mL (≈ 0.712 µM), respectively. The 50% inhibitory concentration (IC50) in data set [5] turned out to be 0.37 µg/mL (≈ 0.693 µM); in data set [6], 3.8 µg/mL (≈ 7.12 µM); in data set [7] it was 0.2 µg/mL (≈ 0.375 µM); in [8] it was 0.34 µg/mL (≈ 0.637 µM). Besides, in [9], the Activity entry was “Non-toxic”.

`CCn1cc(C(=O)O)c(=O)c2cc(F)c(N3CCN(C(c4ccc(OC)c(OC)c4OC)c4nnnn4C(C)(C)C)CC3)cc21` (stereo unspecified): in data set [1], the “-logMIC” value was found to be 5.602. Further, the minimum inhibitory concentration (MIC) in [1] was 1.56 µg/mL (≈ 2.5 µM); in data set [2], 50 µg/mL (≈ 80.2 µM); in [3], 3.12 µg/mL (≈ 5 µM); in [4], 3.12 µg/mL (≈ 5 µM); in data set [5] it was 0.81 µg/mL (≈ 1.3 µM); in data set [6] it was 50 µg/mL (≈ 80.2 µM). The MIC is 1.4 µg/mL (≈ 2.24 µM) in data set [7]; 0.87 µg/mL (≈ 1.39 µM) in data set [8]; 50 µg/mL (≈ 80.2 µM) in data set [10]; over 50 µg/mL in data set [11]; 46 µg/mL (≈ 73.8 µM) in [12]; over 50 µg/mL in [13]. Further, the concentration for half-maximal inhibition (IC50) is 0.4 µg/mL (≈ 0.641 µM) in data set [5]; 50 µg/mL (≈ 80.2 µM) in data set [6]; 0.8 µg/mL (≈ 1.28 µM) in data set [7]; 0.75 µg/mL (≈ 1.2 µM) in data set [8]; 29 µg/mL (≈ 46.5 µM) in data set [12] (read-out: IC50); over 50 µg/mL in data set [13] (read-out: IC50). Also, the Activity entry in [9] is “Non-toxic”.

Turning to `CC(C)(C)n1nnnc1C(c1ccc(F)cc1)N1CCN(c2cc3c(cc2F)c(=O)c(C(=O)O)cn3Cc2ccc(C(F)(F)F)cc2)CC1` (stereo unspecified), the “-logMIC” value in [1] turned out to be 5.037. Besides, the MIC was determined as 6.25 µg/mL (≈ 9.17 µM) in data set [1]; 25 µg/mL (≈ 36.7 µM) in [2]; 3.12 µg/mL (≈ 4.58 µM) in data set [3]; 6.25 µg/mL (≈ 9.17 µM) in data set [4]; 3.1 µg/mL (≈ 4.55 µM) in data set [5]; 19.8 µg/mL (≈ 29 µM) in data set [6]. In addition, the minimal inhibitory concentration (MIC) in data set [7] was 1.6 µg/mL (≈ 2.35 µM); in data set [8], 2.5 µg/mL (≈ 3.67 µM). The half-maximal inhibitory concentration (IC50) in data set [5] was 1 µg/mL (≈ 1.47 µM); in [6] it was 8.09 µg/mL (≈ 11.9 µM); in data set [7] it was 1.4 µg/mL (≈ 2.05 µM); in data set [8], 0.5 µg/mL (≈ 0.733 µM). The Activity entry in data set [9] was “Non-toxic”.

For the compound `CCn1cc(C(=O)O)c(=O)c2cc(F)c(N3CCN(C(c4ccc(OC)c(OC)c4OC)c4nnnn4C4CCCCC4)CC3)cc21` (stereo unspecified), the “-logMIC” value in [1] stood at 5.318. Moreover, the MIC in [1] is 1.56 µg/mL (≈ 2.4 µM); in data set [2] it was 25 µg/mL (≈ 38.5 µM); in data set [3], 1.56 µg/mL (≈ 2.4 µM); in [4], 1.56 µg/mL (≈ 2.4 µM); in [5], 1.35 µg/mL (≈ 2.08 µM); in [6], 28.9 µg/mL (≈ 44.5 µM). The MIC in [7] and in [8] was 0.8 µg/mL (≈ 1.23 µM) throughout. Moreover, the IC50 in data set [5] was determined as 0.37 µg/mL (≈ 0.569 µM); in data set [6], 14.6 µg/mL (≈ 22.5 µM); in [7], 0.7 µg/mL (≈ 1.08 µM); in data set [8], 0.7 µg/mL (≈ 1.08 µM). Also, the Activity entry in data set [9] and in data set [14] was “Non-toxic” throughout.
